Test results published in PubChem BioAssay (NCI).
“And” between values parts separate entries of the source, which are not always exact repeats. Equal values may be shown once.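 Cultured in 96-well plates, cells were exposed to test compound for 48 hours across five concentrations. GI50 is the concentration that inhibits growth by half. TGI is the concentration that stops growth completely.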

Columns and labels:
Assay in all cases: NCI anticancer screen, dose series, 48 h
[1] = tested on: SF-539 CNS
[2] = tested on: OVCAR-8 ovarian
[3] = tested on: SF-295 CNS
[4] = tested on: BT-549 breast
[5] = tested on: SNB-75 CNS
[6] = tested on: UACC-257 melanoma
[7] = tested on: HCT-15 colon
[8] = tested on: HL-60(TB) leukemia
[9] = tested on: UO-31 renal
[10] = tested on: TK-10 renal

Structure (SMILES)	TGI [1] [µM]	TGI [2] [µM]	TGI [3] [µM]	TGI [4] [µM]	TGI [5]	TGI [6]	TGI [7] [µM]	TGI [8] [µM]	TGI [9]	TGI [10] [µM]	GI50 [1] [µM]	GI50 [2] [µM]	GI50 [3] [µM]	GI50 [4] [µM]	GI50 [5]	GI50 [6] [µM]	GI50 [10] [µM]	GI50 [7] [µM]	GI50 [9] [µM]	GI50 [8] [µM]
CC(C)(C)N/N=C(/Cc1nc2c3c(ccc2[nH]c1=O)C(=O)c1ccccc1C3=O)C(=O)NC1=C(Cl)C(=O)c2ccccc2C1=O	> 100	98.6	> 100	> 100	9.03 µM	> 100 µM	20.3	> 100	> 100 µM											
COC(=O)Cc1cc(=O)n2c3ccccc3n(C)c2c1C#N	> 100	> 100	> 100		> 100 µM	> 100 µM	> 100	> 100	> 100 µM	> 100										
COC(=O)C1=NC(=S)NC(c2ccccc2)C1c1nc2ccccc2o1 (stereo not given)	> 50	> 50	> 50			> 50 µM	> 50	> 50	> 50 µM	> 50										
Clc1ccc(C=Nc2ccc(-c3nc4ccccc4[nH]3)cc2)cc1	> 100	> 100	> 100	> 100	> 100 µM	> 100 µM	> 100		> 100 µM	> 100	> 100	> 100	> 100	> 100	77.7 µM	> 100	> 100	> 100	> 100	
CCCCCCCCCCCCCCCCCc1nc(Cl)nc(Cl)c1Cl	> 100	> 100	> 100		> 100 µM		> 100	> 100	> 100 µM	> 100										
CCCCCCCCCCCC/C=C\CC[C@@H](O)[C@H](O)CC[C@H](O)[C@@H]1CC[C@@H](CCCCCCCC2=C[C@H](C)OC2=O)O1		38	15.5		29.1 µM	4.21 µM and 19.6 µM	33.8	6.56	9.26 µM and 41.9 µM	28.6		8.16	0.291	12.8	12.8 µM	1.94	10	8.86	12.4	
Cc1ccc(NCCNCC(C)(C)O)c2c(=O)c3ccc(Cl)cc3sc12	2.82	3.32	3.11		2.85 µM	3.44 µM	2.32	3.17	2.24 µM	3.89	1.44	1.77	1.66		1.34 µM	1.93	2.17	1.05	1.03	1.45
CCCN1C(=O)/C(=C/c2ccc(SC(F)(F)F)cc2)SC1=Nc1ccc(OC)cc1	21.6	20.7	38.1	> 50		22.4 µM	36.9	> 50	17.1 µM	19.2	9.96	7.42	9.32	45.1		2.74	7.1	2.65	8.2	> 50
N#C/C(=C\c1ccc(O)cc1)C(N)=O	> 100	> 100	> 100		> 94.3 µM and 54.7 µM	> 100 µM	> 100	> 100	> 100 µM	> 100					> 49.9 µM and 12.7 µM					
CN1C2C=CC(=O)C1C1C(=O)N(c3ccccc3)C(=O)C12 (stereo not given)	17.7	20.3	36.7		29.2 µM	7.47 µM	20.3	> 100	17.9 µM	18.9	4.87	4.22	3.06		13 µM	2.42	4.55	5.52	3.49	2.19
FC(F)(F)c1ccccc1C1SCc2nc3ccccc3n21 (stereo not given)	> 100	> 100	> 100		> 100 µM	> 100 µM		47	> 100 µM	> 100										
O=[N+]([O-])c1cccc(/C=N/Nc2ccc3ccccc3n2)c1O	8.91	> 39	14.2	37.9		7.67 µM	> 100	3.13	3 µM	> 44.9										
C[N+](C)(C)CC1CCC(C[N+](C)(C)C)C1=NO (stereo not given)	> 100	> 100	> 100		> 100 µM	> 100 µM	> 100	> 100	> 100 µM											
Fc1ccccc1CN1COc2c(cc(Cl)c3cccnc23)C1	10.6	10.7	12.1		14.7 µM	8.73 µM	2.23	10.4	17.7 µM	18										
Cc1cc(N(CCC#N)CCC#N)ccc1/C=C(\NC(=O)/C=C/c1ccccc1)C(=O)Nc1ccccc1Cl	> 100	> 100	> 100			> 100 µM	> 100	> 100	> 100 µM											
O=C(/C=C/c1ccc(O)c(O)c1)N1CCN(c2ccc(Cl)cc2)CC1	21.1	44.4	> 100	45.6	30.2 µM	50 µM	29.2		20.1 µM	26.2	4.4	5.46	19.1	5.21	2.93 µM	7.72	3.59	3.83	2.08	
O=C(/C=C/c1ccccc1)c1ccc(Cl)cc1Cl	37.9	28.4	41.2		92.7 µM	63.8 µM	26.4	36.2	> 100 µM	> 100										
